# Test results as given in patent US20250171431A1, “HETEROCYCLIC INHIBITORS OF IGF-1R FOR TREATMENT OF DISEASE” (HORIZON THERAPEUTICS IRELAND DAC, priority 2023, published 2025).
# Target: IGF-1R (Homo sapiens (Human), UniProt P08069)
# Assay: Example B-1: IGF-1R Assay (PC3 cells, IGF1 stimulation, AlphaLISA)
# Format: cell-based
# Details: 200 ng/mL IGF1 stimulation, read-out: Biological Activity against IGF-1R IC50
# Description: 50K PC3 cells were seeded on day 1 in 50 μL of media in 96-well plate and incubated overnight at 37° C., 5% CO2. On day 2, all cells were expected to be at 80-90% confluency. Cells were starved for two hours by changing the media to 90 μL of EMEM serum-free media and incubated for 2 hours. Next, cells were treated with 10 μL of 10× concentrated and 3× serially diluted compounds for two hours. It makes 1× of compounds in 100 μL media. This was followed by stimulation of cells with 11×IGF1 for 30 min in 10 μL of serum-free EMEM media at the final concentration of 200 ng/mL.
# The media was removed and replaced by 50 μL of 1× lysis buffer from the AlphaLISA kit (with 1× of cOmplete™ protease inhibitor). The plates were sealed, and cells were allowed to lyse for 10 min in the shaker before storing the plate at −20° C. until used. The AlphaLISA assay with processed cell lysates were performed as described in the protocol. Briefly, 10 μL of the undiluted sample were loaded to 384 well Optiplates and 5 μL of the acceptor mix (as described in the AlphaLISA kit) was added to each well. The plates were sealed and briefly vortexed followed by the incubation at RT for 3 hours. In the dark, 5 μL of donor mix was added to each well. All plates were sealed and stored at RT overnight. The plates were read in EnVision reader using standard AlphaLISA settings.
# Compound activity was analyzed using CBIS data analysis suite (ChemInnovation, CA). Percentage inhibition was calculated using the following formula: % Inhibition=100%×(1−(mean RLU of test sample−mean RLU of vehicle control)/(mean RLU of EC80 control−mean RLU of vehicle control)). The activity for representative examples of the invention is shown in the following table, wherein A: IC50≤500 nM; B: 500 nM<IC50≤2 μM; C: 2 μM<IC50≤10 μM; D: IC50>10 μM.
# Sequence of IGF-1R (P08069 31-1367): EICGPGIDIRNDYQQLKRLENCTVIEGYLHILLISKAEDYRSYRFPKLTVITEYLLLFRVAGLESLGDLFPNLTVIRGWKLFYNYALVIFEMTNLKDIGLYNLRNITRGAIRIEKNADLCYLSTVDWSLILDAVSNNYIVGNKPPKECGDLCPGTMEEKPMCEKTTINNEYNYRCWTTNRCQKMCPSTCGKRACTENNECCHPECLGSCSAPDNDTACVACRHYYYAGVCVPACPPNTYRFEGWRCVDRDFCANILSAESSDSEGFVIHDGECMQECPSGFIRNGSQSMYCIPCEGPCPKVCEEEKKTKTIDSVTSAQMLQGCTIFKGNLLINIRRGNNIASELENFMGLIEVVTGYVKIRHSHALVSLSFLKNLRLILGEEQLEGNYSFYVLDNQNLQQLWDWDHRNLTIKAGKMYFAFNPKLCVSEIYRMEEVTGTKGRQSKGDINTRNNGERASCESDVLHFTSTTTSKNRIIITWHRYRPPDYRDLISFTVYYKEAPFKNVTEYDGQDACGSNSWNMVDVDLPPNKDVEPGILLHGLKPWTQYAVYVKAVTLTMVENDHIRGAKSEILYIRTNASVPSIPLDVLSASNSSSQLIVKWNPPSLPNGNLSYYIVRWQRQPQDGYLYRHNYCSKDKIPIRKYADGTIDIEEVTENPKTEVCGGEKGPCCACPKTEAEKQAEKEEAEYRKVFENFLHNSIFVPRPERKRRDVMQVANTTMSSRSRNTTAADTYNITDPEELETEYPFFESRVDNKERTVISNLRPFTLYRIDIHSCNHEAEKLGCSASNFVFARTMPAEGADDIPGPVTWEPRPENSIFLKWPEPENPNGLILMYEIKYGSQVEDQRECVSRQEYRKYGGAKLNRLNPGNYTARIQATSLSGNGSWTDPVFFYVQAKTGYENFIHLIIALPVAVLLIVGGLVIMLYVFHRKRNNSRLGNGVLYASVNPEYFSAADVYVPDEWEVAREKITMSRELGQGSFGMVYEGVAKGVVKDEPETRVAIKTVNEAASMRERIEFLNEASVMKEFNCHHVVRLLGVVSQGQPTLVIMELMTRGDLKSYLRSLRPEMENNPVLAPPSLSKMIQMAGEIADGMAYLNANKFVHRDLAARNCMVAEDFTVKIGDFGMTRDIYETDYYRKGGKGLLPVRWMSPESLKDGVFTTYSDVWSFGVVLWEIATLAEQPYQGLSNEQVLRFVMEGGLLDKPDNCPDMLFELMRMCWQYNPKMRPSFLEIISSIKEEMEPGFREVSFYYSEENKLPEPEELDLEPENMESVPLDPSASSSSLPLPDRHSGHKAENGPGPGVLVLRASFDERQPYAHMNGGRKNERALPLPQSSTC
row,SMILES,IC50 [nM]
1,"COc1cc(Nc2nccc(Nc3cnc4cc[nH]c4c3)n2)ccc1O[C@H]1C[C@@H](N(C)C)C1 [Compound 299, 4-(1H-1,4-diazainden-6-ylamino)-2-{3-methoxy-4-[(1s,3s)-3-(dimethylamino)cyclobutoxy]phenylamino}pyrimidine]",500 to 2000
2,"COc1cc(Nc2nccc(Nc3cnc4c(OC)cccc4c3)n2)ccc1O[C@H]1C[C@@H](N(C)C)C1 [Compound 312, 4-(8-methoxy-3-quinolylamino)-2-{3-methoxy-4-[(1s,3s)-3-(dimethylamino)cyclobutoxy]phenylamino}pyrimidine]",≤ 500
3,"COc1cc(Nc2nccc(Nc3cc4cccc(F)c4[nH]c3=O)n2)ccc1O[C@H]1C[C@@H](N(C)C)C1 [Compound 120, 8-fluoro-3-(2-{3-methoxy-4-[(1s,3s)-3-(dimethylamino)cyclobutoxy]phenyl-amino}-4-pyrimidinylamino)-1,2-dihydro-2-quinolinone]",≤ 500
4,"COc1cc(Nc2nccc(Nc3cnc4c(c3)OCCO4)n2)cc(C#N)c1O[C@H]1C[C@H](N(C)C)C1 [Compound 44, 5-[4-(2,3-dihydro-1,4-dioxa-5-aza-7-naphthylamino)-2-pyrimidinylamino]-3-methoxy-2-[(1r,3r)-3-(dimethylamino)cyclobutoxy] benzonitrile]",≤ 500
5,"COc1cc(Nc2nccc(Nc3cnc4c(c3)OCCO4)n2)cnc1O[C@H]1C[C@@H](N(C)C)C1 [Compound 276, 4-(2,3-dihydro-1,4-dioxa-5-aza-7-naphthylamino)-2-{5-methoxy-6-[(1s,3s)-3-(dimethylamino)cyclobutoxy]-3-pyridylamino}pyrimidine]",≤ 500
6,"COc1cc(Nc2nccc(Nc3cnc4cc(Cl)cnc4c3)n2)ccc1O[C@H]1C[C@@H](N(C)C)C1 [Compound 278, 4-(7-chloro-1,5-diaza-3-naphthylamino)-2-{3-methoxy-4-[(1s,3s)-3-(dimethylamino)cyclobutoxy]phenylamino}pyrimidine]",≤ 500
7,"COc1cc(Nc2nccc(Nc3cnc4c(=O)n(C)ncc4c3)n2)ccc1O[C@H]1C[C@@H](N(C)C)C1 [Compound 304, 3-(2-{3-methoxy-4-[(1s,3s)-3-(dimethylamino)cyclobutoxy]phenylamino}-4-pyrimidinylamino)-7-methyl-1,6,7-triaza-8(7H)-naphthalenone]",> 10000
8,"COc1ccc2ncc(Nc3ccnc(Nc4ccc(O[C@H]5C[C@@H](N(C)C)C5)c(OC)c4)n3)cc2c1 [Compound 277, 4-(6-methoxy-3-quinolylamino)-2-{3-methoxy-4-[(1s,3s)-3-(dimethylamino)cyclobutoxy]phenylamino}pyrimidine]",≤ 500
9,"COc1cc(Nc2nccc(Nc3cnc4c(c3)O[C@H]3CCCC[C@@H]3O4)n2)ccc1O[C@H]1C[C@@H](N(C)C)C1 [Compound 191, 4-[(8aS,10aS)-5,6,7,8,8a,10a-hexahydro-9,10-dioxa-1-aza-3-anthrylamino]-2-{3-methoxy-4-[(1s,3R)-3-(dimethylamino)cyclobutoxy]phenylamino}pyrimidine]",≤ 500
10,"COc1cc(Nc2nccc(Nc3cc4ccccc4nc3OC)n2)ccc1O[C@H]1C[C@H](N(C)C)C1 [Compound 340, 4-(2-methoxy-3-quinolylamino)-2-{3-methoxy-4-[(1r,3r)-3-(dimethylamino)cyclobutoxy]phenylamino}pyrimidine]",≤ 500
11,"COc1cc(Nc2nccc(Nc3cc4c(nc3C(N)=O)CCCC4)n2)ccc1O[C@H]1C[C@@H](N(C)C)C1 [Compound 256, 3-(2-{3-methoxy-4-[(1s,3s)-3-(dimethylamino)cyclobutoxy]phenylamino}-4-pyrimidinylamino)-5,6,7,8-tetrahydro-2-quinolinecarboxamide]",≤ 500
12,"CN(C)[C@H]1C[C@H](Oc2ccc(Nc3nccc(Nc4cnc5ccccc5c4)n3)cc2Cl)C1 [Compound 35, 2-{3-chloro-4-[(1r,3r)-3-(dimethylamino)cyclobutoxy]phenylamino}-4-(3-quinolylamino)pyrimidine]",≤ 500
13,"COc1cc(Nc2nccc(Nc3cnc4c(c3)C3CCC4C3)n2)ccc1O[C@H]1C[C@H](N(C)C)C1 (some centres unmarked) [Compound 76, 4-(3-azatricyclo[6.2.1.02,7]undeca-2,4,6-trien-5-ylamino)-2-{3-methoxy-4-[(1r,3r)-3-(dimethylamino)cyclobutoxy]phenylamino}pyrimidine]",≤ 500

# Continued, values first:
row,IC50 [nM],SMILES
1,≤ 500,"CN(C)[C@H]1CC[C@@H](Oc2ccc(Nc3nccc(Nc4cnc5ccccc5c4)n3)cc2)CC1 [Compound 40, 4-(3-quinolylamino)-2-{p-[(1s,4s)-4-(dimethylamino)cyclohexyloxy]phenylamino}pyrimidine]"
2,≤ 500,"COc1cc(Nc2nccc(Nc3cc4cccc(F)c4[nH]c3=O)n2)cnc1OC1CC2(C1)CN(C)C2 [Compound 167, 8-fluoro-3-(2-{5-methoxy-6-(2-methyl-2-aza-6-spiro[3.3]heptyloxy)-3-pyridylamino}-4-pyrimidinylamino)-1,2-dihydro-2-quinolinone]"
3,≤ 500,"COc1cc(Nc2nccc(Nc3cnc4c(Cl)cccc4c3)n2)ccc1N1CCOCC1 [Compound 461, 4-(8-chloro-3-quinolylamino)-2-(3-methoxy-4-morpholinophenylamino) pyrimidine]"
4,500 to 2000,"COc1cc(Nc2nccc(Nc3cnc4cc(F)c(F)cc4c3)n2)cnc1N1CCOC(C)(C)C1 [Compound 157, N4-(6,7-difluoroquinolin-3-yl)-N2-(6-(2,2-dimethylmorpholino)-5-methoxypyridin-3-yl)pyrimidine-2,4-diamine]"
5,500 to 2000,"COc1cc(Nc2nccc(Nc3cnc4cc(F)c(F)cc4c3)n2)cnc1N1CC2CCC(C1)O2 [Compound 126, 4-(6,7-difluoro-3-quinolylamino)-2-{5-methoxy-6-(8-oxa-3-azabicyclo[3.2.1]oct-3-y1)-3-pyridylamino}pyrimidine]"
6,≤ 500,"COc1cc(Nc2nccc(Nc3cnc4ccccc4c3)n2)ccc1OCCCN1CCOCC1 [Compound 14, 2-[3-methoxy-4-(3-morpholinopropoxy)phenylamino]-4-(3-quinolylamino)pyrimidine]"
7,≤ 500,"COc1cc(Nc2nccc(Nc3cc4cccc(F)c4[nH]c3=O)n2)cnc1N1CC2(COC2)C1 [Compound 234, 8-fluoro-3-(2-{5-methoxy-6-(2-oxa-6-aza-6-spiro[3.3]heptyl)-3-pyridylamino}-4-pyrimidinylamino)-1,2-dihydro-2-quinolinone]"
8,≤ 500,"COc1ccc2cc(Nc3ccnc(Nc4ccc(N5CCN(C)CC5)cc4OC)n3)cnc2c1 [Compound 463, 2-[2-methoxy-4-(4-methyl-1-piperazinyl)phenylamino]-4-(7-methoxy-3-quinolylamino)pyrimidine]"
9,≤ 500,"COc1cc(Nc2nccc(Nc3ccc4c(OC)cccc4c3)n2)ccc1OCCCN1CCCCC1 [Compound 453, 4-(5-methoxy-2-naphthylamino)-2-[3-methoxy-4-(3-piperidinopropoxy)phenylamino] pyrimidine]"
10,≤ 500,"COc1cc(Nc2nccc(Nc3cnc4[nH]ccc4c3)n2)ccc1OCCCN1CCCCC1 [Compound 381, 4-(1H-1,7-diazainden-5-ylamino)-2-[3-methoxy-4-(3-piperidinopropoxy)phenylamino]pyrimidine]"
11,≤ 500,"CC(O)C(=O)N1CCN(c2ccc(Nc3nccc(Nc4cnc5ccccc5c4)n3)cc2)CC1 (centres unmarked) [Compound 465, 2-hydroxy-1-(4-{p-[4-(3-quinolylamino)-2-pyrimidinylamino]phenyl}-1-piperazinyl)-1-propanone]"
12,≤ 500,"COc1cc(Nc2nccc(Nc3cc4cccc(F)c4[nH]c3=O)n2)cnc1N1CCC(O)(C(F)(F)F)CC1 [Compound 228, 8-fluoro-3-(2-{6-[4-hydroxy-4-(trifluoromethyl)-1-piperidyl]-5-methoxy-3-pyridylamino}-4-pyrimidinylamino)-1,2-dihydro-2-quinolinone]"
13,≤ 500,"COc1cc(Nc2nccc(Nc3cc(C)c4ccccc4c3)n2)ccc1OCCCN1CCCCC1 [Compound 454, 2-[3-methoxy-4-(3-piperidinopropoxy)phenylamino]-4-(4-methyl-2-naphthylamino) pyrimidine]"
14,≤ 500,"COc1cc(Nc2nccc(Nc3cnc4ccc(Cl)cc4c3)n2)cnc1N1CCN(C)C(C)(C)C1 [Compound 480, 4-(6-chloro-3-quinolylamino)-2-[6-(3,3-dimethyl-4-methyl-1-piperazinyl)-5-methoxy-3-pyridylamino] pyrimidine]"
15,500 to 2000,"COc1cc(Nc2nccc(Nc3cnc4c(c3)COC(C)(C)C4)n2)ccc1OCCCN1CCCCC1 [Compound 385, 4-(7,7-dimethyl-7,8-dihydro-5H-6-oxa-1-azanaphth-3-ylamino)-2-[3-methoxy-4-(3-piperidinopropoxy)phenylamino]pyrimidine]"
16,≤ 500,"COc1cc(Nc2nccc(Nc3cnc4c(c3)C3CCC4C3)n2)ccc1OCCCN1CCCCC1 (centres unmarked) [Compound 56, 4-(3-azatricyclo[6.2.1.0^2,7]undeca-2,4,6-trien-5-ylamino)-2-[3-methoxy-4-(3-piperidinopropoxy)phenylamino] pyrimidine]"
